The target of assay [1] is T1, human recombinant kinase full-length AKT1 E17K (Homo sapiens, UniProt P31749, E17K).
T1 construct: Purified human recombinant kinase full-length AKT1 E17K was expressed in insect cells; made in house; host or cells: insect cells
As to the kind of experiment: AKT1 E17K kinase assay (TR-FRET, Lance). The assay is classed as biochemical. The following applies: 0.6 nM AKT1 E17K, 50 nM Ulight-CREBtide, either 50 μM ATP or 2 mM ATP, 60 min at RT. Summed up:
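Full-length AKT1 E17K from insect cells, PDPK1-activated, at 0.6 nM with 50 nM Ulight-CREBtide and 50 μM or 2 mM ATP, pH 7.5, 1% DMSO. Enzyme and compound preincubated 15 min, reaction run 60 min at RT; Eu-anti-phospho-CREB (Ser133) TR-FRET 665/620 ratio, 10-point curve, IC50 by 4-parameter fit.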

The target in assay [2] is T2, human recombinant kinase full-length wildtype AKT1 (Homo sapiens, UniProt P31749).
T2 construct: Purified human recombinant kinase full-length wildtype AKT1 was expressed in insect cells; made in house; host or cells: insect cells
As to the kind of experiment: AKT1 kinase assay (wildtype, TR-FRET, Lance). The assay is classed as biochemical. The following applies: 0.6 nM wildtype AKT1, 50 nM Ulight-CREBtide, either 50 μM ATP or 2 mM ATP, 60 min at RT. Summed up: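 Insect-cell-expressed full-length human AKT1, PDPK1-activated (0.6 nM), preincubated with compound 15 min at RT, then reacted 60 min at RT with 50 nM ULight-CREBtide and 50 μM or 2 mM ATP (pH 7.5, 1% DMSO). Phospho-CREBtide read by Eu-anti-phospho-Ser133 TR-FRET (665/620 ratio); IC50 from 10-point 4-parameter fit.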
On the technique in general: Time-resolved FRET reads energy transfer from a long-lived donor to a nearby acceptor.

Bounds are passed on as bounds.

T2 sequence (P31749 whole entry): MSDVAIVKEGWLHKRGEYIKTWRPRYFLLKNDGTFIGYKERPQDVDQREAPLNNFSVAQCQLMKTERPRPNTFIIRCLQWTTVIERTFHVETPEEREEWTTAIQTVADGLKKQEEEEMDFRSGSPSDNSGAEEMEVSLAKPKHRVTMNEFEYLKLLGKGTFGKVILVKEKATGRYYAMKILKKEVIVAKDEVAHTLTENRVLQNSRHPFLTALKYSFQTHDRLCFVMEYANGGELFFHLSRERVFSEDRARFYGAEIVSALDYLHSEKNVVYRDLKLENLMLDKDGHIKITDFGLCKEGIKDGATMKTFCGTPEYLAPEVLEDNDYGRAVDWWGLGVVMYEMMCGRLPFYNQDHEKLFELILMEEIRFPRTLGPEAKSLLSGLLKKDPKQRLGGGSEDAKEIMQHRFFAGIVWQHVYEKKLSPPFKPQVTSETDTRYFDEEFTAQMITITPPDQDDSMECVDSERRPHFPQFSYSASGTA
T1 sequence (P31749 whole entry E17K): as the sequence (P31749 whole entry) above, with E17K counted along it

Take `Nc1ncccc1-c1nc2ccc(-c3ccccc3)cc2n1-c1ccc(NC(=O)C2CCCC(C(=O)O)C2)nc1` (stereo not shown) [Compound I-111, 3-((5-(2-(2-aminopyridin-3-yl)-6-phenyl-1H-benzo[d]imidazol-1-yl)pyridin-2-yl)carbamoyl)cyclohexane-1-carboxylic acid]: the half-maximal inhibitory concentration (IC50) in assay [1] was 500 to 2000 nM; in assay [2], less than 20000 nM.
For `Cc1ccccc1-c1ccc2nc(-c3cccnc3N)n(-c3ccc(C4CN(C[C@H]5CC[C@H](C(=O)O)CC5)C4)cc3C)c2n1` [Compound I-211], in that order: not below 2000 nM and less than 20000 nM.
For `CC1(C)C[C@H](CN2CC(c3ccc(-n4c(-c5cccnc5N)nc5ccc(-c6ccccc6)nc54)cc3)C2)CC[C@@H]1C(=O)O` [Compound I-70, (1S,4R)-4-((3-(4-(2-(2-aminopyridin-3-yl)-5-phenyl-3H-imidazo[4,5-b]pyridin-3-yl)phenyl)azetidin-1-yl)methyl)-2,2-dimethylcyclohexane-1-carboxylic acid], the IC50 in assay [1] is less than 500 nM; in assay [2] it was less than 20000 nM.
For `Nc1ncccc1-c1nc2ccc(-c3ccccc3)nc2n1-c1ccc(NCC2CC3(C2)CC(C(=O)O)C3)nc1` (stereo not shown) [Compound I-137, 6-(((5-(2-(2-aminopyridin-3-yl)-5-phenyl-3H-imidazo[4,5-b]pyridin-3-yl)pyridin-2-yl)amino)methyl)spiro[3.3]heptane-2-carboxylic acid], in that order: less than 500 nM and less than 20000 nM.
Consider `Cc1cc(NC(=O)[C@H]2CC[C@H](C(=O)O)CC2)ccc1-n1c(-c2cccnc2N)nc2ccc(-c3ccccc3)nc21` [Compound I-102, (1r,4r)-4-((4-(2-(2-aminopyridin-3-yl)-5-phenyl-3H-imidazo[4,5-b]pyridin-3-yl)-3-methylphenyl)carbamoyl)cyclohexane-1-carboxylic acid], for which the values for the IC50 in assay [1] and in assay [2] were 500 to 2000 nM and less than 20000 nM, respectively.
Consider `Nc1ncccc1-c1nc2ccc(-c3ccccc3)nc2n1-c1ccc(C2CN(CC3CCC(CC(=O)O)CC3)C2)cc1` (stereo not shown) [Compound I-153], for which the values for the IC50 in assay [1] and in assay [2] were less than 500 nM and less than 20000 nM, respectively.
Turning to `Nc1ncccc1-c1nc2ccc(-c3ccccc3)nc2n1-c1ccc(C(=O)N[C@H]2CC[C@H](C(=O)O)CC2)nc1` [Compound I-19, (1r,4r)-4-(5-(2-(2-aminopyridin-3-yl)-5-phenyl-3H-imidazo[4,5-b]pyridin-3-yl)picolinamido)cyclohexane-1-carboxylic acid], the IC50 in assay [1] is not below 2000 nM; in assay [2] it was less than 20000 nM.
For `Nc1ncccc1-c1nc2cc(-c3cccnc3)cnc2n1-c1ccc(C2CN(C[C@H]3CC[C@H](C(=O)O)CC3)C2)cc1` [Compound I-73, (1r,4r)-4-((3-(4-(2-(2-aminopyridin-3-yl)-6-(pyridin-3-yl)-3H-imidazo[4,5-b]pyridin-3-yl)phenyl)azetidin-1-yl)methyl)cyclohexane-1-carboxylic acid], in that order: not below 2000 nM and less than 20000 nM.
As to `Cc1nc(CN(C)[C@H]2CC[C@@H](C(=O)O)CC2)ccc1-n1c(-c2cccnc2N)nc2ccc(-c3ccccc3)nc21` [Compound I-184], the figures for the IC50 in assay [1] and in assay [2] were 500 to 2000 nM and less than 20000 nM, respectively.
On the same counts, the results for `Cc1c(-n2c(-c3cccnc3N)nc3ccc(-c4ccccc4)nc32)ccc(NC(=O)C2CC3(CC(C(=O)O)C3)C2)c1F` (stereo not shown) [Compound I-101, 6-((4-(2-(2-aminopyridin-3-yl)-5-phenyl-3H-imidazo[4,5-b]pyridin-3-yl)-2-fluoro-3-methylphenyl)carbamoyl)spiro[3.3]heptane-2-carboxylic acid] are not below 2000 nM and less than 20000 nM.
For `Nc1ncccc1-c1nc2ccc(-c3ccccc3)nc2n1-c1ccc(C2CCCN(CC3CCC(C(=O)O)CC3)C2)cc1` (stereo not shown) [Compound I-77, 4-((3-(4-(2-(2-aminopyridin-3-yl)-5-phenyl-3H-imidazo[4,5-b]pyridin-3-yl)phenyl)piperidin-1-yl)methyl)cyclohexane-1-carboxylic acid], the IC50 in assay [1] is not below 2000 nM; in assay [2], less than 20000 nM.

The IC50 is the point on the concentration scale where inhibition reaches its midpoint.
